{"source": "the supplement of paper PMC10307832", "test_in_all_cases": "relative viability (nuclei count vs DMSO), 5 days (fraction); higher = more cells survive", "key": {"[1]": {"compound": "C=CCc1cccc(/C=N/NC(=O)CN2CCN(Cc3ccccc3)CC2)c1O [PAC-1] + Cc1nc(Nc2ncc(C(=O)Nc3c(C)cccc3Cl)s2)cc(N2CCN(CCO)CC2)n1 [Dasatinib] (partner 0.075 µM)", "how_it_was_run": "(§1)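 Relative viability divides the nuclei count in treated wells by that in vehicle wells. Lung cancer cell lines were seeded in 1536-well plates, dosed by pin tool the next day, and fixed and stained after 5 days in one step with final 0.05% Triton X-100, 1% formaldehyde and 1 ug/ml Hoechst. Dosing was a single drug or a fixed anchor-drug dose plus five library-drug doses (not always all listed) in √10 steps, and values are medians of duplicate plates imaged at 4×.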"}, "[2]": {"compound": "C=CC(=O)Nc1cc(-n2c(=O)ccc3cnc4ccc(-c5ccc(NS(C)(=O)=O)cc5)cc4c32)ccc1C [BMX-IN-1] + CC(=O)c1c(C)c2cnc(Nc3ccc(N4CCNCC4)cn3)nc2n(C2CCCC2)c1=O [Palbociclib] (partner 0.5 µM)", "how_it_was_run": "as §1"}, "[3]": {"compound": "C=CC(=O)Nc1cc(-n2c(=O)ccc3cnc4ccc(-c5ccc(NS(C)(=O)=O)cc5)cc4c32)ccc1C [BMX-IN-1] + COc1cc2c(Oc3ccc(NC(=O)C4(C(=O)Nc5ccc(F)cc5)CC4)cc3F)ccnc2cc1OCCCN1CCOCC1 [Foretinib] (partner 0.25 µM)", "how_it_was_run": "as §1"}, "[4]": {"compound": "C=CC(=O)Nc1cc(-n2c(=O)ccc3cnc4ccc(-c5ccc(NS(C)(=O)=O)cc5)cc4c32)ccc1C [BMX-IN-1] + C[C@]1(O)C[C@@H](c2nc(-c3ccc4ccc(-c5ccccc5)nc4c3)c3c(N)nccn32)C1 [Linsitinib] (partner 1 µM)", "how_it_was_run": "as §1"}, "[5]": {"compound": "C=CCc1cccc(/C=N/NC(=O)CN2CCN(Cc3ccccc3)CC2)c1O [PAC-1] + CCNC(=O)c1noc(-c2cc(C(C)C)c(O)cc2O)c1-c1ccc(CN2CCOCC2)cc1 [Luminespib] (partner 0.01 µM)", "how_it_was_run": "as §1"}}}
{"cell line": "SK-MES-1", "values": [{"measurement": "relative viability", "setting": "[1]; first compound 0.02 µM", "value": 0.359}, {"measurement": "relative viability", "setting": "[1]; first compound 0.06325 µM", "value": 0.516}, {"measurement": "relative viability", "setting": "[1]; first compound 0.2 µM", "value": 0.371}, {"measurement": "relative viability", "setting": "[1]; first compound 2 µM", "value": 0.401}, {"measurement": "relative viability", "setting": "[2]; first compound 0.02 µM", "value": 0.303}, {"measurement": "relative viability", "setting": "[2]; first compound 0.2 µM", "value": 0.333}, {"measurement": "relative viability", "setting": "[2]; first compound 0.6325 µM", "value": 0.355}, {"measurement": "relative viability", "setting": "[2]; first compound 2 µM", "value": 0.271}, {"measurement": "relative viability", "setting": "[3]; first compound 0.02 µM", "value": 0.877}, {"measurement": "relative viability", "setting": "[3]; first compound 0.2 µM", "value": 1.02}, {"measurement": "relative viability", "setting": "[3]; first compound 0.6325 µM", "value": 0.967}, {"measurement": "relative viability", "setting": "[3]; first compound 2 µM", "value": 0.728}, {"measurement": "relative viability", "setting": "[4]; first compound 0.02 µM", "value": 1.11}, {"measurement": "relative viability", "setting": "[4]; first compound 0.2 µM", "value": 1.06}, {"measurement": "relative viability", "setting": "[4]; first compound 0.6325 µM", "value": 1.15}, {"measurement": "relative viability", "setting": "[4]; first compound 2 µM", "value": 1.07}, {"measurement": "relative viability", "setting": "[5]; first compound 0.02 µM", "value": 0.723}, {"measurement": "relative viability", "setting": "[5]; first compound 0.06325 µM", "value": 0.805}, {"measurement": "relative viability", "setting": "[5]; first compound 0.2 µM", "value": 0.726}, {"measurement": "relative viability", "setting": "[5]; first compound 2 µM", "value": 0.56}]}
